Test results from ChEMBL document CHEMBL1201862, “PubChem BioAssay data set” (2004).
Activity calls are given as the source filed them.

Experiments:
[1] = target: RNA-editing ligase 1, mitochondrial (Trypanosoma brucei brucei, UniProt P86926); test: TbREL1 ligase inhibitors, dose response, biochemical, fluorescence, Trypanosoma brucei (AID 1117295); format: functional
[2] = target: T1, Replicative DNA helicase DnaB (Mycobacterium tuberculosis, UniProt P9WMR3); test: DnaB intein splicing inhibitors, dose response, biochemical, cell-free fluorescence (AID 449749); format: functional
T1 sequence (P9WMR3 whole entry): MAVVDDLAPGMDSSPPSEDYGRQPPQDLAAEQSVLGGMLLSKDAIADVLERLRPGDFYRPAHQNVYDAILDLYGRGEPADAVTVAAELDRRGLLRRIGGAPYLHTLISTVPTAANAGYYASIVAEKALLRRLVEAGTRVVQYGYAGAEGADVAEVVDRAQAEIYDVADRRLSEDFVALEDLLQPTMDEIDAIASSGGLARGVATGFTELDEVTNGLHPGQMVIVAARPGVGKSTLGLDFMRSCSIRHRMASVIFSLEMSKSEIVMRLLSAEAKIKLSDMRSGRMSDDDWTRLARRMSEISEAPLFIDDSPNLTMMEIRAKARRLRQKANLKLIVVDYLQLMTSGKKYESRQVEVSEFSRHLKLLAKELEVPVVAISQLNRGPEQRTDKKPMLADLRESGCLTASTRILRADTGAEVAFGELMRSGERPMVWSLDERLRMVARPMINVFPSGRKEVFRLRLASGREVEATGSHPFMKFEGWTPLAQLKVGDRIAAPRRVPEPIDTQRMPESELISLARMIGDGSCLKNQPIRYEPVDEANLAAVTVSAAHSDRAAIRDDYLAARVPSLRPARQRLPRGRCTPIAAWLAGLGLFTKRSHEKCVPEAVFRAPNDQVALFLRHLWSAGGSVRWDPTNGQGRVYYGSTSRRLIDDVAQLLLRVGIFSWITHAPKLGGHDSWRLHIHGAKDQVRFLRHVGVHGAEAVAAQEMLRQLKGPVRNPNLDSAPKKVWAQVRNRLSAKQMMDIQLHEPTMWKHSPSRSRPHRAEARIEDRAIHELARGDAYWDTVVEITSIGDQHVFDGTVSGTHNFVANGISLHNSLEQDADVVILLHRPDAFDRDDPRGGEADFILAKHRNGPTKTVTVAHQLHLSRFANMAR

Protein RecA = target: T2, Protein RecA (Mycobacterium tuberculosis, UniProt P9WHJ3); test: Fluorescence Cell-Free Homogeneous Dose Retest to Identify Inhibitors of RecA-Intein Splicing Activity. [Related pubchem assays (depositor defined):AID2097, AID2223, AID489010, AID492950]; format: functional
T2 sequence (P9WHJ3 whole entry): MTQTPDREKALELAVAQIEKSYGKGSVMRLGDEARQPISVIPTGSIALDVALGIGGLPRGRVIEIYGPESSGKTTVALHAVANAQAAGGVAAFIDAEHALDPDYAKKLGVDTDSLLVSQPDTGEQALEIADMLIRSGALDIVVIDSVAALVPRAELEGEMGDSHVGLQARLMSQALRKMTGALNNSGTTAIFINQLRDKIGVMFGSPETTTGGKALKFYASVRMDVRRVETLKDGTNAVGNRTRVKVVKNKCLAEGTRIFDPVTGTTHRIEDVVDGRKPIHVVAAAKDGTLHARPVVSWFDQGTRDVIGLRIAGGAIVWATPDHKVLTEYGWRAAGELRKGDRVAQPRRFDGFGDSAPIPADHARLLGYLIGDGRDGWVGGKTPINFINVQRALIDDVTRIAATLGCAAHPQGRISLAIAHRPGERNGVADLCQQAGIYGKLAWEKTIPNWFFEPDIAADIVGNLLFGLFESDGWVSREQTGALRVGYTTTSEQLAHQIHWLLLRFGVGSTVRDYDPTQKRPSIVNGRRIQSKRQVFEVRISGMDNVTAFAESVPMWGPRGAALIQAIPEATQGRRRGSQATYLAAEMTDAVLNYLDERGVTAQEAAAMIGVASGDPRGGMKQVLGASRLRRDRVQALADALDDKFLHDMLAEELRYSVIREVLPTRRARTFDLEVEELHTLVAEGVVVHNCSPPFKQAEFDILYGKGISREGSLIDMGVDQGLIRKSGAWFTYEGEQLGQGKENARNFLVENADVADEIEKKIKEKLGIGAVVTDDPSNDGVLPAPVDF

[3] = target: Heat shock protein HSP 90-alpha (Homo sapiens, UniProt P07900); format: functional, organism-based
[4] = Artemis endonuclease inhibitor potency, dose response, biochemical, fluorescence intensity (AID 720701); format: functional;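 further: Artemis endonuclease enzyme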
[5] = target: T3, Apoptotic protease-activating factor 1 (Homo sapiens, UniProt O14727); format: functional
T3 sequence (O14727 whole entry): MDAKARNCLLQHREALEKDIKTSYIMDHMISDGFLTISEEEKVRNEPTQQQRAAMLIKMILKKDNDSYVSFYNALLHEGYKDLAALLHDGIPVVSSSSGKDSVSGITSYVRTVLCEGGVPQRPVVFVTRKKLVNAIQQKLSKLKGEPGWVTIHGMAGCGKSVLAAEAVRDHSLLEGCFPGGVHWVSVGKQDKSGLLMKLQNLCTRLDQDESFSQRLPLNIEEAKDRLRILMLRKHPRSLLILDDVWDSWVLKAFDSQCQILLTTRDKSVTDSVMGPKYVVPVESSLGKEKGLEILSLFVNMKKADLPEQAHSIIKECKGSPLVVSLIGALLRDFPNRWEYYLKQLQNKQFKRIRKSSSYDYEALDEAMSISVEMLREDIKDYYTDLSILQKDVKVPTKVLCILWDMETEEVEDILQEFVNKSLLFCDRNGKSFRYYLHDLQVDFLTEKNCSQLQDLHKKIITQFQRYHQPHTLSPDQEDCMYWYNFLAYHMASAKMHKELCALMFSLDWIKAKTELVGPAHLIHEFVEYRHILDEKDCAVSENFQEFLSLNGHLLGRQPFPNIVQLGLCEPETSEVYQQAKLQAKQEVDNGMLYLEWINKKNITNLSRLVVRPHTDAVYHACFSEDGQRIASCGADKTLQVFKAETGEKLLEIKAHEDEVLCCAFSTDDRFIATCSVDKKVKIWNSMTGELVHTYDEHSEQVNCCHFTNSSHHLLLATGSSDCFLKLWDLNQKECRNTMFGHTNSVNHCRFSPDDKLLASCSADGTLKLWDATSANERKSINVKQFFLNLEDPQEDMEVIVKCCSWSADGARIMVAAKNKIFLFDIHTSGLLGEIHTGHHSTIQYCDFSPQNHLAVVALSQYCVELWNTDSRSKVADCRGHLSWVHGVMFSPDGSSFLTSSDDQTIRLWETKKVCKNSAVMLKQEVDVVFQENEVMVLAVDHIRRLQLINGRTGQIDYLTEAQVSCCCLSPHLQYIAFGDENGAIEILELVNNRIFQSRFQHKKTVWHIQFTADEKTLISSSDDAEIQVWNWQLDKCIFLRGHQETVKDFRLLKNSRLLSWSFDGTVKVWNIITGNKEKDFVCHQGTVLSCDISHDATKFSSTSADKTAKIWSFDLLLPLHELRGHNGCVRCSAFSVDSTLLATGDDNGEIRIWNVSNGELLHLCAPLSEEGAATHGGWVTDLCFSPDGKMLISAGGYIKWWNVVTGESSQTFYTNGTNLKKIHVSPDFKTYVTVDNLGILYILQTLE

[6] = target: NAD-dependent protein deacylase sirtuin-5, mitochondrial (Homo sapiens, UniProt Q9NXA8); test: SIRT5 desuccinylase inhibitors, dose response, biochemical, fluorescence imaging, cherry-pick, set 5 (AID 720591);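 further: desuccinylation of succinyl peptide AMC substrate read as fluorescence after trypsin release; potency of inhibitors that lower fluorescence and may act on trypsin instead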
Sequence of NAD-dependent protein deacylase sirtuin-5, mitochondrial (Q9NXA8 whole entry): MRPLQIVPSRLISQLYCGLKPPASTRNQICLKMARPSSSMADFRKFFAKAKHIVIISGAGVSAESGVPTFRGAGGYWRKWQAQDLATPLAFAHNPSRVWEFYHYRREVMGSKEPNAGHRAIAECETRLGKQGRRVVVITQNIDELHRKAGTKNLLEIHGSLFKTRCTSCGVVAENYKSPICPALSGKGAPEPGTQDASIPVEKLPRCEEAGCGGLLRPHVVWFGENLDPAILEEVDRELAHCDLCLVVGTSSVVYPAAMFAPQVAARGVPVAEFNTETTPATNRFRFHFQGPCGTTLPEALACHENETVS

Phospholipase D2 = Phospholipase D2 (Homo sapiens, UniProt O14939); test: PLD2 Cellular Concentration Response Study.; format: functional
Sequence of Phospholipase D2 (O14939 whole entry): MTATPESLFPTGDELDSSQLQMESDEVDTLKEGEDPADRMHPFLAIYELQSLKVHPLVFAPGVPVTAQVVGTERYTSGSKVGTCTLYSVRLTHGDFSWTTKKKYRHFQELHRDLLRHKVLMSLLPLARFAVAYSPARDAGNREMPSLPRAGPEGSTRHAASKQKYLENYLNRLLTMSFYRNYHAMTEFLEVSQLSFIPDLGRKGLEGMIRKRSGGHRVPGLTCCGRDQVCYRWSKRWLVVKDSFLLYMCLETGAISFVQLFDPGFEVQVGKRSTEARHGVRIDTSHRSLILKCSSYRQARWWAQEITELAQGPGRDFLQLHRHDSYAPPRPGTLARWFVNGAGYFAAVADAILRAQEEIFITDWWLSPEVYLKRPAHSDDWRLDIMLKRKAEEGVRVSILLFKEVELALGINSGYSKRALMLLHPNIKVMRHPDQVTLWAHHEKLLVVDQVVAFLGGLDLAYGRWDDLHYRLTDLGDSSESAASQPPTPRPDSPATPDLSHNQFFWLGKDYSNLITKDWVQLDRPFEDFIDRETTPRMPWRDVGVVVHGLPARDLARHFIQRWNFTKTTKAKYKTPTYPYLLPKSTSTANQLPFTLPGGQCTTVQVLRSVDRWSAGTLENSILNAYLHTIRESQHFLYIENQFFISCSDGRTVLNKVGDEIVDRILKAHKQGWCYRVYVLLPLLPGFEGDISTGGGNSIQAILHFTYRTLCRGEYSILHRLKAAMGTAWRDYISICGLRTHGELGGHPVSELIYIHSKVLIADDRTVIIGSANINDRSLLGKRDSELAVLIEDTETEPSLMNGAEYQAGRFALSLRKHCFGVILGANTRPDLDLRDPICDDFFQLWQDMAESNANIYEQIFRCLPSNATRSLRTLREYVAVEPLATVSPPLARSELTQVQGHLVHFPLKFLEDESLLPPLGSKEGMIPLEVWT

Phospholipase D1 = target: T4, Phospholipase D1 (Homo sapiens, UniProt Q13393); test: PLD1 Cellular Concentration Response Study.; format: functional
T4 sequence (Q13393 whole entry): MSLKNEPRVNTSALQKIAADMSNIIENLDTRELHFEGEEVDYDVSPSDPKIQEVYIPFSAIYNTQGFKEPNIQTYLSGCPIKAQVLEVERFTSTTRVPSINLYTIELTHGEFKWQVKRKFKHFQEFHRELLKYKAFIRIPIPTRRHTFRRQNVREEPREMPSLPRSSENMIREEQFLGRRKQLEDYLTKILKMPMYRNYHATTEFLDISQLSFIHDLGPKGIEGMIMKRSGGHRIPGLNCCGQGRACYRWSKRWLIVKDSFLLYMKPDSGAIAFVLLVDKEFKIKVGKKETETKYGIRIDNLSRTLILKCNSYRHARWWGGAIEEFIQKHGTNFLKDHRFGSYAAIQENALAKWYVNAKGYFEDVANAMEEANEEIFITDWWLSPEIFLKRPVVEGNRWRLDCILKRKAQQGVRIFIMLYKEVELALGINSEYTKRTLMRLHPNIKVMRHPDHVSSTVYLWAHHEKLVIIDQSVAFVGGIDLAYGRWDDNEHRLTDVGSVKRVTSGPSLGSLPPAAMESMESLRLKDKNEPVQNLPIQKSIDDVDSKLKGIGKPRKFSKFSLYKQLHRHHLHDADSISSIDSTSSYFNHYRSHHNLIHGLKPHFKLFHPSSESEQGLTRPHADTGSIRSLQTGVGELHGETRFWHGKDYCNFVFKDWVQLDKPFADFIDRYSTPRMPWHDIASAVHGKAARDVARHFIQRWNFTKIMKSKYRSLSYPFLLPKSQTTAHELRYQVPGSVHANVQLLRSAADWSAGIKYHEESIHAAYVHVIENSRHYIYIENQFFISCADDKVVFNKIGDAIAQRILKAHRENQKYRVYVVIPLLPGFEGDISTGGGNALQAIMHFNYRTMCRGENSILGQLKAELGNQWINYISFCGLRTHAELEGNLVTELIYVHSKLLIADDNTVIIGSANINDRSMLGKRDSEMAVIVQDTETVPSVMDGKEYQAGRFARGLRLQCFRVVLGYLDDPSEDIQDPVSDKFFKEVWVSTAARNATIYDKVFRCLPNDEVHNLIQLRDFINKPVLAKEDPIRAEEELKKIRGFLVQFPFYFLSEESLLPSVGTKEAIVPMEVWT

[7] = target: G-protein coupled receptor 183 (Homo sapiens, UniProt P32249); test: SAR confirmation of small molecule antagonists of the EBI2 receptor via a luminescent beta-arrestin assa.; format: functional
Sequence of G-protein coupled receptor 183 (P32249 whole entry): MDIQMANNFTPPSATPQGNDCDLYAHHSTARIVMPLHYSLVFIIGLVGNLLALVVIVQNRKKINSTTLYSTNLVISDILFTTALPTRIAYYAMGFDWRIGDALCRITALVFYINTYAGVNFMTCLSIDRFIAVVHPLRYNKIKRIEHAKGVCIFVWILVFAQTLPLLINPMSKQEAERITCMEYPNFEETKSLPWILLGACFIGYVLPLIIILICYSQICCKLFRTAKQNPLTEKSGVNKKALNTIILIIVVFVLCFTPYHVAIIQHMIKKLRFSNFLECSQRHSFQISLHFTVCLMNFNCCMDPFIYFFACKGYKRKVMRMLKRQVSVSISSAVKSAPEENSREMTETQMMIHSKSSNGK

[8] = inhibitors of Vif binding to APOBEC3G peptide, primary screen, biochemical, TR-FRET, GST-Vif 1-94, biotin-A3G peptide, dose response retest (AID 1117319); format: functional;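 further: TR-FRET signal of purified GST-Vif binding a biotinylated A3G peptide; inhibitors lower the FRET signal by blocking Vif and A3G binding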
[9] = target: T5, Oxysterols receptor LXR-beta (Homo sapiens, UniProt P55055); format: functional, cell-based;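 further: Cell-based luminescence dose-response assay of agonist activity at LXR, run as a confirmatory counterscreen to a daf-12 agonist screen; HEK293 cells with Gal4-LXR fusion and GAL4-driven luciferase reporter; agonist potency from rising luciferase signal of a Gal4-LXR reporter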
T5 sequence (P55055 whole entry): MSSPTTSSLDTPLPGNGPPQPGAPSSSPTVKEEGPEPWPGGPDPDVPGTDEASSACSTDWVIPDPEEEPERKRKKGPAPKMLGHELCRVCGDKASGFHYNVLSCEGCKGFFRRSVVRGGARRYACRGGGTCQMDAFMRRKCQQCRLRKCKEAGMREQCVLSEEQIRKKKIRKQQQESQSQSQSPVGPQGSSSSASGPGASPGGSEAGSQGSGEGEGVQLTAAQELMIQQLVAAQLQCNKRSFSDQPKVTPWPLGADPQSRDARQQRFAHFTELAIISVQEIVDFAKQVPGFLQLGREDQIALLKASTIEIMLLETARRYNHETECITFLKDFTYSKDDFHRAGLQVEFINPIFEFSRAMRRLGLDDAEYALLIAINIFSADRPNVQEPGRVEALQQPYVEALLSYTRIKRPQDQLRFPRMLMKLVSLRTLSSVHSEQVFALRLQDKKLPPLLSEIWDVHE

Protein Tat = target: T6, Protein Tat (Human immunodeficiency virus type 1 group M subtype B (isolate HXB2)(HIV-1), UniProt P04608); format: functional;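 further: tat binding to TAR RNA read out by fluorescence polarization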
T6 sequence (P04608 whole entry): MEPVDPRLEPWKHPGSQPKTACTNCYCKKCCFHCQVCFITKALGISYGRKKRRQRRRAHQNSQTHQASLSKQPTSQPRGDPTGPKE

[10] = Vero cell cytotoxicity, dose response, cytotoxicity control for Vif-APOBEC3G degradation inhibitor project, Vero cells (AID 1117358); format: functional; conditions: Human immunodeficiency virus 1, Vero

Sequence of RNA-editing ligase 1, mitochondrial (P86926 whole entry): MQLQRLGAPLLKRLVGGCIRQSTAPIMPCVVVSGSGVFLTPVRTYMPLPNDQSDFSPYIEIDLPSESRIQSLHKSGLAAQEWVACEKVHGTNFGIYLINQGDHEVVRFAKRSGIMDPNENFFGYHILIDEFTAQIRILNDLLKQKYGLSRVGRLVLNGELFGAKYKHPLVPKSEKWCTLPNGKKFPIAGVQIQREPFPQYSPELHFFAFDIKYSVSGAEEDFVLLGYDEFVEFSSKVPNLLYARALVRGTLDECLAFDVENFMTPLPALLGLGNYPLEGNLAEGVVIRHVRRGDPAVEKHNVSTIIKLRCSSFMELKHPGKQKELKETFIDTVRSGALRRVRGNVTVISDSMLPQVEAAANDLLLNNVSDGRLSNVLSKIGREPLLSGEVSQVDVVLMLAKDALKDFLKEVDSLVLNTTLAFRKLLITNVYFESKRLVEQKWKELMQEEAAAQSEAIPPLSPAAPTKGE

## COC(=O)C1=C(C)N(Cc2ccccc2C(F)(F)F)C(NCc2ccc(C(F)(F)F)cc2)=NC1c1ccc(Cl)cc1 (stereo unspecified)
[1]
  IC50: > 96.6 µM (inactive)

## Cc1[nH]n(-c2ccccc2)c(=O)c1C(C[N+](=O)[O-])c1ccc(Br)cc1 (stereo unspecified)
[2]
  AC50: 7.55 µM (active)
Protein RecA
  EC50: 5.73 µM (active)
[3]
  AC50: 7.85 µM (active)
[4]
  IC50: > 20 µM (inactive)
[5]
  IC50: 4.17 µM (active)

## CC(C)CCN1C(=O)c2ccccc2C1c1nnnn1-c1ccc2c(c1)OCCO2 (stereo unspecified)
[6]
  AC50: > 30 µM (inactive)

## O=C(NCCN1CCC2(CC1)C(=O)NCN2Cc1cccc2ccccc12)c1ccc2ccccc2c1
Phospholipase D2
  IC50: 0.16 µM (active)
Phospholipase D1
  IC50: 1.05 µM (active)

## O=C(/C=C/c1ccc(Br)cc1)N1CCN(Cc2ccc(Cl)cc2)CC1
[7]
  IC50: 0.00103 µM (active)

## O=C(O)c1ccccc1NS(=O)(=O)c1ccccc1C(F)(F)F
[8]
  IC50: > 100 µM (active)

## O=C(Cc1ccc(Br)cc1)N1CCN(Cc2ccc(Cl)cc2)CC1
[7]
  IC50: > 1 µM (inactive)

## CC1=NN(C(N)=S)C(=O)C1N=Nc1ccc(Br)cc1 (stereo unspecified)
[9]
  EC50: > 67.6 µM (inactive)
cells
  EC50: > 67.6 µM (inactive)

## O=C(NCCN1CCC2(CC1)C(=O)NCN2Cc1cccnc1)c1ccc2ccccc2c1Br
Phospholipase D2
  IC50: 1.24 µM (active)
Phospholipase D1
  IC50: 20 µM (active)

## CCc1nc(OCc2ccco2)c2sc3nc4c(cc3c2n1)COC(C)(C)C4
[8]
  IC50: > 100 µM (active)
Protein Tat
  IC50: > 100 µM (active)
[10]
  CC50: > 40 µM (active)

## CCCn1c(SCC(=O)Nc2ccc3c(c2)OCO3)nc2c1c(=O)n(C)c(=O)n2C
[6]
  AC50: > 30 µM (inactive)

## C=C(Cl)COc1ccc2c(CCC)cc(=O)oc2c1
[10]
  CC50: > 40 µM (active)
